Test results: patent US20240124442A1, “TRICYCLIC-AMIDO-BICYCLIC PRMT5 INHIBITORS” (AMGEN INC., priority 2021, published 2024)

Assays:
[1] = tested on: HCT116 MTAP null cells; assay: HCT116 MTAP null cell line proliferation / cell viability (CellTiter-Glo, 6 days); format: cell-based; conditions: 144 h; HCT116 MTAP null cells, 6 days treatment, CellTiter-Glo cell viability; read-out: HCT-116 MTAP null IC50
In short: (§1)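 WT vs MTAP-null HCT116, 6 d drug, CTG readout. 1:3 × 8–9 pts (top 1/10 μM) or 1:2 × 22 pts (top 10/50 μM). IC50 by 4PL or Hill −1 fit.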

[2] = tested on: HCT116 WT cells; assay: HCT116 WT (parent) cell line proliferation / cell viability (CellTiter-Glo, 6 days); format: cell-based; conditions: Homo sapiens, HCT-116, 144 h, 6 days treatment
In short: as §1

Structure (SMILES): CN(C(=O)c1cc2c(cn1)nc(N)c1ncncc12)[C@@H]1COCc2nc(C(F)(F)F)ccc21 [Example 282, 5-amino-N-methyl-N-((5S)-2-(trifluoromethyl)-5,8-dihydro-6H-pyrano[3,4-b]pyridin-5-yl)-pyrimido[4,5-c][1,7]naphthyr-idine-9-carboxamide]
- IC50 [1]: 475 nM
- IC50 [2]: 5970 nM

Structure (SMILES): COc1ccc2c(n1)COC[C@H]2N(C)C(=O)c1ccc2nc(N)c3cnn(C)c3c2c1 [Example 283, 4-amino-N-((5S)-2-methoxy-5,8-dihydro-6H-pyrano[3,4-b]-pyridin-5-yl)-N,1-dimethyl-1H-pyrazolo[4,3-c]quinoline-8-carboxamide]
- IC50 [1]: 21 nM
- IC50 [2]: 1360 nM

Structure (SMILES): COc1ccc2c(n1)COC[C@@H]2N(C)C(=O)c1ccc2nc(N)c3cnn(C)c3c2c1 [Example 284, 4-amino-N-((5R)-2-methoxy-5,8-dihydro-6H-pyrano[3,4-b]-pyridin-5-yl)-N,1-dimethyl-1H-pyrazolo[4,3-c]quinoline-8-carboxamide]
- IC50 [1]: 674 nM
- IC50 [2]: 15600 nM

Structure (SMILES): CCOc1ncc2c(n1)COC[C@H]2N(C)C(=O)c1ccc2nc(N)c3cnn(C)c3c2c1 [Example 285, 4-amino-N-((5S)-2-ethoxy-5,8-dihydro-6H-pyrano[3,4-d]-pyrimidin-5-yl)-N,1-dimethyl-1H-pyrazolo[4,3-c]quinoline-8-carboxamide]
- IC50 [1]: 974 nM
- IC50 [2]: 31300 nM

Structure (SMILES): CN(C(=O)c1ccc2nc(N)c3cnn(C)c3c2c1)[C@@H]1COCc2nc(C(F)(F)F)ccc21 [Example 286, 4-amino-N,1-dimethyl-N-((5S)-2-(trifluoromethyl)-5,8-dihydro-6H-pyrano[3,4-b]pyridin-5-yl)-1H-pyrazolo[4,3-c]quinoline-8-carboxamide]
- IC50 [1]: 8 nM
- IC50 [2]: 619 nM

Structure (SMILES): CN(C(=O)c1cc2c(cn1)nc(N)c1cnn(C)c12)[C@@H]1COCc2cc(C(F)(F)F)ccc21 [Example 288, 4-amino-N,1-dimethyl-N-((4S)-7-(trifluoromethyl)-3,4-dihydro-1H-2-benzopyran-4-yl)-1H-pyrazolo[4,3-c][1,7]naphthyr-idine-8-carboxamide]
- IC50 [1]: 6 nM
- IC50 [2]: 72 nM

Structure (SMILES): CN(C(=O)c1cc2c(cn1)nc(N)c1cnn(C)c12)[C@@H]1COCc2nc(C(F)(F)F)ccc21 [Example 289, 4-amino-N,1-dimethyl-N-((5S)-2-(trifluoromethyl)-5,8-dihydro-6H-pyrano[3,4-b]pyridin-5-yl)-1H-pyrazolo[4,3-c][1,7]naph-thyridine-8-carboxamide]
- IC50 [1]: 16 nM
- IC50 [2]: 357 nM

Structure (SMILES): CN(C(=O)c1cc2c(cc1F)nc(N)c1cnn(C)c12)C1CCOc2nc(C(F)(F)F)ccc21 [Example 291, 4-amino-7-fluoro-N,1-dimethyl-N-((4R)-7-(trifluoromethyl)-3,4-dihydro-2H-pyrano[2,3-b]-pyridin-4-yl)-1H-pyrazolo[4,3-c]quinoline-8-carboxamide and 4-amino-7-fluoro-N,1-dimethyl-N-((4S)-7-(trifluoromethyl)-3,4-dihydro-2H-pyrano[2,3-b]pyr-idin-4-yl)-1H-pyrazolo[4,3-c]-quinoline-8-carboxamide]
- IC50 [1]: 169 nM
- IC50 [2]: 10500 nM

Structure (SMILES): CN(C(=O)c1cc2c(cc1F)nc(N)c1cnn(C)c12)[C@@H]1COCc2cc(C(F)(F)F)ncc21 [Example 292, 4-amino-7-fluoro-N,1-dimethyl-N-((4S)-7-(trifluoromethyl)-3,4-dihydro-1H-pyrano[4,3-c]pyr-idin-4-yl)-1H-pyrazolo[4,3-c]-quinoline-8-carboxamide]
- IC50 [1]: 7 nM
- IC50 [2]: 224 nM

Structure (SMILES): CN(C(=O)c1cc2c(cc1F)nc(N)c1cnn(C)c12)[C@H]1COCc2cc(C(F)(F)F)ncc21 [Example 293, 4-amino-7-fluoro-N,1-dimethyl-N-((4R)-7-(trifluoromethyl)-3,4-dihydro-1H-pyrano[4,3-c]-pyridin-4-yl)-1H-pyrazolo[4,3-c]quinoline-8-carboxamide]
- IC50 [1]: 305 nM
- IC50 [2]: 7210 nM

Structure (SMILES): CN(C(=O)c1cc2c(cc1Cl)nc(N)c1cnn(C)c12)[C@@H]1COCc2cc(C(F)(F)F)ccc21 [Example 294, 4-amino-7-chloro-N,1-dimethyl-N-((4S)-7-(trifluoromethyl)-3,4-dihydro-1H-2-benzopyran-4-yl)-1H-pyrazolo[4,3-c]quinoline-8-carboxamide]
- IC50 [1]: 3 nM
- IC50 [2]: 12 nM

Structure (SMILES): CN(C(=O)c1cc2c(cc1Cl)nc(N)c1cnn(C)c12)[C@@H]1COCc2nc(C(F)(F)F)ccc21 [Example 295, 4-amino-7-chloro-N,1-dimethyl-N-((5S)-2-(trifluoromethyl)-5,8-dihydro-6H-pyrano[3,4-b]-pyridin-5-yl)-1H-pyrazolo[4,3-c]quinoline-8-carboxamide]
- IC50 [1]: 2 nM
- IC50 [2]: 34 nM

Structure (SMILES): CN(C(=O)c1cc2c(nc1Cl)nc(N)c1cnn(C)c12)[C@@H]1COCc2cc(C(F)(F)F)ccc21 [Example 296, 4-amino-7-chloro-N,1-dimethyl-N-((4S)-7-(trifluoromethyl)-3,4-dihydro-1H-2-benzopyran-4-yl)-1H-pyrazolo[4,3-c][1,8]naph-thyridine-8-carboxamide]
- IC50 [1]: 8 nM
- IC50 [2]: 159 nM

Structure (SMILES): Cc1cc2nc(N)c3cnn(C)c3c2cc1C(=O)N(C)[C@@H]1COCc2nc(C(F)(F)F)ccc21 [Example 297, 4-amino-N,1,7-trimethyl-N-((5S)-2-(trifluoromethyl)-5,8-dihydro-6H-pyrano[3,4-b]pyr-idin-5-yl)-1H-pyrazolo[4,3-c]-quinoline-8-carboxamide]
- IC50 [1]: 6 nM
- IC50 [2]: 162 nM

Structure (SMILES): Cc1cc2nc(N)c3cnn(C)c3c2cc1C(=O)N(C)[C@@H]1COCc2nc(Br)ccc21 [Example 298, 4-amino-N-((5S)-2-bromo-5,8-dihydro-6H-pyrano[3,4-b]-pyridin-5-yl)-N,1,7-trimethyl-1H-pyrazolo[4,3-c]quinoline-8-carboxamide]
- IC50 [1]: 1 nM
- IC50 [2]: 16 nM

Structure (SMILES): Cc1nc2nc(N)c3cnn(C)c3c2cc1C(=O)N(C)[C@@H]1COCc2cc(C#N)ccc21 [Example 299, 4-amino-N-((4S)-7-cyano-3,4-dihydro-1H-2-benzopyran-4-yl)-N,1,7-trimethyl-1H-pyr-azolo[4,3-c][1,8]naphthyridine-8-carboxamide]
- IC50 [1]: 37 nM
- IC50 [2]: 1520 nM

Structure (SMILES): Cc1nc2nc(N)c3cnn(C)c3c2cc1C(=O)N(C)[C@@H]1COCc2cc(C(F)(F)F)ccc21 [Example 300, 4-amino-N,1,7-trimethyl-N-((4S)-7-(trifluoromethyl)-3,4-dihydro-1H-2-benzopyran-4-yl)-1H-pyrazolo[4,3-c][1,8]-naphthyridine-8-carboxamide]
- IC50 [1]: 16 nM
- IC50 [2]: 225 nM

Structure (SMILES): Cc1nc2nc(N)c3cnn(C)c3c2cc1C(=O)N(C)[C@@H]1COCc2nc(C(F)(F)F)ccc21 [Example 301, 4-amino-N,1,7-trimethyl-N-((5S)-2-(trifluoromethyl)-5,8-dihydro-6H-pyrano[3,4-b]pyridin-5-yl)-1H-pyrazolo-[4,3-c][1,8]naphthyridine-8-carboxamide]
- IC50 [1]: 28 nM
- IC50 [2]: 1250 nM

Structure (SMILES): CN(C(=O)c1cc2c(cc1C(F)(F)F)nc(N)c1cnn(C)c12)[C@@H]1COCc2cc(C(F)(F)F)ccc21 [Example 302, 4-amino-N,1-dimethyl-7-(trifluoromethyl)-N-((4S)-7-(trifluoromethyl)-3,4-dihydro-1H-2-benzopyran-4-yl)-1H-pyrazolo[4,3-c]quinoline-8-carboxamide]
- IC50 [1]: 6 nM
- IC50 [2]: 161 nM

Structure (SMILES): CN(C(=O)c1cc2c(cc1C(F)(F)F)nc(N)c1cnn(C)c12)[C@@H]1COCc2nc(C(F)(F)F)ccc21 [Example 303, 4-amino-N,1-dimethyl-7-(trifluoromethyl)-N-((5S)-2-(trifluoromethyl)-5,8-dihydro-6H-pyrano[3,4-b]pyridin-5-yl)-1H-pyrazolo[4,3-c]quinoline-8-carboxamide]
- IC50 [1]: 14 nM
- IC50 [2]: 902 nM

Structure (SMILES): CN(C(=O)c1cc2c(cn1)nc(N)c1c2cnn1C)[C@@H]1COCc2nc(C(F)(F)F)ccc21 [Example 304, 4-amino-N,3-dimethyl-N-((5S)-2-(trifluoromethyl)-5,8-dihydro-6H-pyrano[3,4-b]pyridin-5-yl)-3H-pyrazolo[3,4-c][1,7]naph-thyridine-8-carboxamide]
- IC50 [1]: 198 nM
- IC50 [2]: 9230 nM

Structure (SMILES): CCN(C(=O)c1cc2c(cc1F)nc(N)c1c2cnn1C)[C@@H]1COCc2nc(C(F)(F)F)ccc21 [Example 305, 4-amino-N-ethyl-7-fluoro-3-methyl-N-((5S)-2-(trifluoro-methyl)-5,8-dihydro-6H-pyrano[3,4-b]pyridin-5-yl)-3H-pyrazolo[3,4-c]quinoline-8-carboxamide]
- IC50 [1]: 20 nM
- IC50 [2]: 429 nM

Structure (SMILES): CN(C(=O)c1cc2c(cc1F)nc(N)c1c2cnn1C)C1COCc2cc(OC(F)(F)F)ccc21 [Example 306, 4-amino-7-fluoro-N,3-dimethyl-N-((4R)-7-(trifluoromethoxy)-3,4-dihydro-1H-2-benzopyran-4-yl)-3H-pyrazolo[3,4-c]quin-oline-8-carboxamide and 4-amino-7-fluoro-N,3-dimethyl-N-((4S)-7-(trifluoromethoxy)-3,4-dihydro-1H-2-benzopyran-4-yl)-3H-pyrazolo[3,4-c]quin-oline-8-carboxamide]
- IC50 [1]: 111 nM
- IC50 [2]: 5060 nM

Structure (SMILES): CCN(C(=O)c1cc2c(cc1C)nc(N)c1c2cnn1C)[C@@H]1COCc2nc(C(F)(F)F)ccc21 [Example 307, 4-amino-N-ethyl-3,7-dimethyl-N-((5S)-2-(trifluoromethyl)-5,8-dihydro-6H-pyrano[3,4-b]-pyridin-5-yl)-3H-pyrazolo-[3,4-c]quinoline-8-carboxamide]
- IC50 [1]: 19 nM
- IC50 [2]: 471 nM

Structure (SMILES): Cc1n[nH]c2c1c(N)nc1ccc(C(=O)N(C)[C@@H]3COCc4nc(C(F)(F)F)ccc43)cc12 [Example 308, 4-amino-N,3-dimethyl-N-((5S)-2-(trifluoromethyl)-5,8-dihydro-6H-pyrano[3,4-b]pyridin-5-yl)-1H-pyrazolo[4,3-c]quinoline-8-carboxamide]
- IC50 [1]: 76 nM
- IC50 [2]: 4130 nM
